Data set [1] can be described thus: Cytotoxicity against MDCK cells assessed as reduction in cell viability measured after 72 hrs by alamar blue assay. Type of data set: cell-based, Canis lupus familiaris. The conditions noted are these: dog.
A further data set has as its system Influenza A virus. The data set can be described thus: Antiviral activity against Influenza A virus (A/PR/8/34 (H1N1)) infected in MDCK cells assessed as reduction in viral replication preincubated for 1 hr followed by compound washout and measured after 48 hrs. The class given is functional, organism-based, A/Puerto Rico/8/1934(H1N1).
A short description of data set [2]: Binding affinity to influenza virus PB2 transformed into Escherichia coli rosseta competent cells by surface plasmon resonance analysis. Further details: species or system unidentified influenza virus.
Data set [3] is described as follows: Binding affinity to influenza virus PB2 transformed into Escherichia coli rosseta competent cells by isothermal titration calorimetry. On the set-up: species or system unidentified influenza virus.
In data set [4] the test system is unidentified influenza virus. The data set can be described thus: Binding affinity to influenza virus PB2 transformed into Escherichia coli rosseta competent cells assessed as binding constant by isothermal titration calorimetry.
[5] abbreviates: Influenza A virus, A/Puerto Rico/8/1934(H1N1), MDCK.

Consider `NC(=O)c1ncn([C@@H]2O[C@H](CO)[C@@H](O)[C@H]2O)n1` [RIBAVIRIN], for which the CC50 at 72 h in data set [1] is more than 100 µM. The EC50 with Influenza A virus is 9.12 µM.
`O=C(O)[C@H]1C2CCC(CC2)[C@@H]1Nc1nc(-c2c[nH]c3ncc(F)cc23)ncc1F` [PIMODIVIR]: the values for the equilibrium dissociation constant (Kd) in data set [2] and in data set [3] were 0.07 µM and 0.05 µM, respectively. Further, the CC50 at 72 h in data set [1] is more than 100 µM. Moreover, in the data set on Influenza A virus (setting [5]), the EC50 is 0.002 µM.
On to `C[C@H](Nc1nc(-c2c[nH]c3ncc(F)cc23)cn(C)c1=O)c1cccc(F)c1`, for which, in data set [2], binding was put at a Kd of 25.7 µM.
Take `CC1CCCCC1Nc1nc(-c2c[nH]c3ncc(F)cc23)cn(C)c1=O` (stereo not given): the Kd in data set [2] amounted to 5.23 µM.
`CC[C@H](Nc1nc(-c2c[nH]c3ncc(F)cc23)cn(C)c1=O)c1ccccc1`: in data set [2], the dissociation constant Kd is 10.3 µM.
Consider `CCn1cc(-c2c[nH]c3ncc(F)cc23)nc(N[C@H]2C3CCC(CC3)[C@@H]2C(=O)O)c1=O`, for which the Kd in data set [2] came to 0.11 µM; in data set [3], 0.19 µM. In addition, in data set [4], the K amounted to 5.19 ×10⁶ /M. For the same compound, the half-maximal cytotoxic concentration (CC50) at 72 h in data set [1] is more than 100 µM. Also, in the data set with Influenza A virus (setting [5]), the half-maximal effective concentration (EC50) was 1.02 µM.
`CC(C)C(CC(=O)O)Nc1nc(-c2c[nH]c3ncc(F)cc23)cn(C)c1=O` (stereo not given) gave a Kd in data set [2] of 3.47 µM.
In data set [2], `Cn1cc(-c2c[nH]c3ncc(F)cc23)nc(N[C@@H](Cc2ccccc2)C(N)=O)c1=O` came in with a Kd of 22.3 µM.
Still for that read-out and setting: next, `CC(C)(C)C1CCC(n2cc(-c3c[nH]c4ncc(F)cc34)nc(N[C@H]3C4CCC(CC4)[C@@H]3C(=O)O)c2=O)CC1` (stereo not given in full): 16.3 µM; `O=C(O)[C@H]1C2CCC(CC2)[C@@H]1Nc1nc(-c2c[nH]c3ncc(F)cc23)cn(-c2ccc(C(F)(F)F)cc2)c1=O`: 7.15 µM.
In data set [2], `O=C(O)[C@H]1C2CCC(CC2)[C@@H]1Nc1nc(-c2c[nH]c3ncc(F)cc23)cn(-c2ccc(F)c(F)c2)c1=O` registered a Kd of 5.33 µM.
`O=C(O)[C@H]1C2CCC(CC2)[C@@H]1Nc1nc(-c2c[nH]c3ncc(F)cc23)cn(CC(F)F)c1=O` displayed a Kd in data set [2] of 0.16 µM.
Take `Cn1cc(-c2c[nH]c3ncc(F)cc23)nc(NC[C@H]2CCCO2)c1=O`: in data set [2], the affinity, expressed as Kd, was 8.27 µM.
For `O=C(O)[C@H]1C2CCC(CC2)[C@@H]1Nc1nc(-c2c[nH]c3ncc(F)cc23)cn(CC(F)(F)F)c1=O`, the equilibrium dissociation constant (Kd) in data set [2] was found to be 0.17 µM.
Same read-out and setting: next, `Cn1cc(-c2c[nH]c3ncc(F)cc23)nc(NC23CC4CC(CC(O)(C4)C2)C3)c1=O`: 2.05 µM.
Regarding `O=C(O)[C@H]1C2CCC(CC2)[C@@H]1Nc1nc(-c2c[nH]c3ncc(F)cc23)cn(Cc2cccc(C(F)(F)F)c2)c1=O`, the Kd in data set [2] is 2.13 µM. This Kd and that of the compound before are within 1.5-fold of each other.
The same measure, in the same setting: for `CCCn1cc(-c2c[nH]c3ncc(F)cc23)nc(N[C@H]2C3CCC(CC3)[C@@H]2C(=O)O)c1=O` the value was 0.32 µM; for `COc1ccc(-n2cc(-c3c[nH]c4ncc(F)cc34)nc(N[C@H]3C4CCC(CC4)[C@@H]3C(=O)O)c2=O)cc1`, 3.93 µM; for `CC(C1CC1)n1cc(-c2c[nH]c3ncc(F)cc23)nc(N[C@H]2C3CCC(CC3)[C@@H]2C(=O)O)c1=O` (stereo not given in full), 0.53 µM.
`O=C(O)[C@H]1C2CCC(CC2)[C@@H]1Nc1nc(-c2c[nH]c3ncc(F)cc23)cn(C2CCC2)c1=O` came in with an equilibrium dissociation constant (Kd) in data set [2] of 0.47 µM.
In data set [2], `O=C(O)[C@H]1C2CCC(CC2)[C@@H]1Nc1nc(-c2c[nH]c3ncc(F)cc23)cn(C2CC2)c1=O` gave a dissociation constant (Kd) of 0.32 µM.
On the same count and under the same terms, next, `O=C(O)[C@H]1C2CCC(CC2)[C@@H]1Nc1nc(-c2c[nH]c3ncc(F)cc23)cn(-c2ccccc2)c1=O`: 1 µM; `Cn1cc(-c2c[nH]c3ncc(F)cc23)nc(NCCc2cccs2)c1=O`: more than 50 µM.
`O=C(O)[C@H]1C2CCC(CC2)[C@@H]1Nc1nc(-c2c[nH]c3ncc(F)cc23)cn(C2CCCCC2)c1=O`: the dissociation constant (Kd) in data set [2] was found to be 0.74 µM.
As to `Cc1cc(C)cc(-n2cc(-c3c[nH]c4ncc(F)cc34)nc(N[C@H]3C4CCC(CC4)[C@@H]3C(=O)O)c2=O)c1`, the dissociation constant (Kd) in data set [2] was determined as 4.9 µM.
In data set [2], `O=C(O)[C@H]1C2CCC(CC2)[C@@H]1Nc1nc(-c2c[nH]c3ncc(F)cc23)cn(Cc2cccs2)c1=O` yielded a Kd of 1.04 µM.
Take `Cn1cc(-c2c[nH]c3ncc(F)cc23)nc(N[C@H]2C3CCC(CC3)[C@@H]2C(=O)O)c1=O`: in data set [2], the dissociation constant Kd amounted to 0.27 µM.
Compound `Cn1cc(-c2c[nH]c3ncc(F)cc23)nc(NCCCN2CCOCC2)c1=O` displayed a dissociation constant (Kd) in data set [2] of more than 50 µM.
Still for that read-out and setting: next, `O=C(O)[C@H]1C2CCC(CC2)[C@@H]1Nc1nc(-c2c[nH]c3ncc(F)cc23)cn(C2CCCC2)c1=O`: 0.49 µM; `O=C(O)Cn1cc(-c2c[nH]c3ncc(F)cc23)nc(N[C@H]2C3CCC(CC3)[C@@H]2C(=O)O)c1=O`: 0.5 µM.
Turning to `CCOc1ccc(-n2cc(-c3c[nH]c4ncc(F)cc34)nc(N[C@H]3C4CCC(CC4)[C@@H]3C(=O)O)c2=O)cc1`, binding in data set [2] was put at a Kd of 6.23 µM.
The compound `Cn1cc(-c2c[nH]c3ncc(F)cc23)nc(NC[C@@H]2CCCO2)c1=O` gave a dissociation constant Kd in data set [2] of 10.2 µM. This Kd lies about 1.6-fold higher than the previous one.

Values taken from ChEMBL document CHEMBL4390701, “Discovery of 5-(5-fluoro-1H-pyrrolo[2,3-b]pyridin-3-yl)pyrazin-2(1H)-one derivatives as new potent PB2 inhibitors” (Bioorg Med Chem Lett, 2019).
